Reference: PMC11995724, “Antibiotic target discovery by integrated phenotypic and activity-based profiling of electrophilic fragments” (Cell chemical biology, 2025)
Structures can show the parent of a compound that is named as a salt.

Assay: in vitro
Conditions: human, hek293t cells

SMILES | viability at 48 h, 25 µM [%]
CC1CCCN(C(=O)C(NC(=O)CCl)c2cnn(C)c2)C1 (stereo not drawn) [6-H05, 2-chloro-N-[1-(1-methyl-1H-pyrazol-4-yl)-2-(3-methylpiperidin-1-yl)-2-oxoethyl]acetamide] | 104
O=C(CCl)N(Cc1ccc(Cl)c([N+](=O)[O-])c1)c1ccccc1 [6-H06, 2-chloro-N-[(4-chloro-3-nitrophenyl)methyl]-N-phenylacetamide] | 0.976
Cc1ccc2[nH]c3c(c2c1)CCCC3N(C)C(=O)CCl (stereo not drawn) [6-H07, 2-chloro-N-methyl-N-(6-methyl-2,3,4,9-tetrahydro-1H-carbazol-1-yl)acetamide] | 0.1
O=C(CCl)NCc1cc(C(F)F)no1 [6-H08, 2-chloro-N-{[3-(difluoromethyl)-1,2-oxazol-5-yl]methyl}acetamide] | 5.77
CC(Cl)C(=O)N1CCCC(n2ncc(N(C)C(C)C)cc2=O)C1 (stereo not drawn) [6-H09, 2-[1-(2-chloropropanoyl)piperidin-3-yl]-5-[methyl(propan-2-yl)amino]-2,3-dihydropyridazin-3-one] | 97.3
CC(Cl)C(=O)Nc1ccccc1Sc1ccccc1 (stereo not drawn) [6-H10, 2-chloro-N-[2-(phenylsulfanyl)phenyl]propanamide] | 116
CN(CCNC(=O)CCl)S(=O)(=O)c1cccs1 [6-H11, 2-chloro-N-[2-(N-methylthiophene-2-sulfonamido)ethyl]acetamide] | 11.1
CN(C)S(=O)(=O)c1ccc(Cl)c(NC(=O)CCl)c1 [6-H12, 2-chloro-N-[2-chloro-5-(dimethylsulfamoyl)phenyl]acetamide] | 0.99
CC(Cl)C(=O)NC(C)c1nnc2n1CCCC2 (stereo not drawn) [6-H13, 2-chloro-N-(1-{5H,6H,7H,8H-[1,2,4]triazolo[4,3-a]pyridin-3-yl}ethyl)propanamide] | 105
CC(Cl)C(=O)NCc1cc(C(F)F)nn1C (stereo not drawn) [6-H14, 2-chloro-N-{[3-(difluoromethyl)-1-methyl-1H-pyrazol-5-yl]methyl}propanamide] | 108
Cc1nsc(N2CCN(C(=O)C(C)Cl)CC2)c1C#N (stereo not drawn) [6-H15, 5-[4-(2-chloropropanoyl)piperazin-1-yl]-3-methyl-1,2-thiazole-4-carbonitrile] | 91.4
CCc1ccc(OC(C)C(=O)N2CCN(C(=O)C(C)Cl)CC2)cc1 (stereo not drawn) [6-H16, 1-[4-(2-chloropropanoyl)piperazin-1-yl]-2-(4-ethylphenoxy)propan-1-one] | 105
CC(Cl)C(=O)N1CCN(CCOc2ccc3c(c2)CCC3)CC1 (stereo not drawn) [6-H17, 2-chloro-1-{4-[2-(2,3-dihydro-1H-inden-5-yloxy)ethyl]piperazin-1-yl}propan-1-one] | 3.42
CC1CC(c2ccccc2F)N(C(=O)C(C)Cl)C1 (stereo not drawn) [6-H18, 2-chloro-1-[2-(2-fluorophenyl)-4-methylpyrrolidin-1-yl]propan-1-one] | 116
CC(Cl)C(=O)N1Cc2ccccc2OC(C)(C)C1 (stereo not drawn) [6-H19, 2-chloro-1-(2,2-dimethyl-2,3,4,5-tetrahydro-1,4-benzoxazepin-4-yl)propan-1-one] | 91
CC(Cl)C(=O)NCC1c2ccccc2C(=O)N1Cc1ccccc1 (stereo not drawn) [6-H20, N-[(2-benzyl-3-oxo-2,3-dihydro-1H-isoindol-1-yl)methyl]-2-chloropropanamide] | 107
CC(Cl)C(=O)NC1CCC(C)(C)c2ccccc21 (stereo not drawn) [6-H21, 2-chloro-N-(4,4-dimethyl-1,2,3,4-tetrahydronaphthalen-1-yl)propanamide] | 100
CC(Cl)C(=O)N1CCOCC(n2cccn2)C1 (stereo not drawn) [6-H22, 2-chloro-1-[6-(1H-pyrazol-1-yl)-1,4-oxazepan-4-yl]propan-1-one] | 105
COc1cccc(NC(=O)C(C)Cl)c1 (stereo not drawn) [6-I03, 2-chloro-N-(3-methoxyphenyl)propanamide] | 105
CC(Cl)C(=O)NCc1ccc(Cl)cc1 (stereo not drawn) [6-I04, 2-chloro-N-[(4-chlorophenyl)methyl]propanamide] | 107
Cc1ccc2nc(-c3ccc(NC(=O)CCl)cc3)sc2c1 [6-I05, 2-chloro-N-[4-(6-methyl-1,3-benzothiazol-2-yl)phenyl]acetamide] | 3.47
COC(=O)C1(NC(=O)CCl)CC1 [6-I06, methyl 1-(2-chloroacetamido)cyclopropane-1-carboxylate] | 101
O=C(CCl)NCC1(c2ccccc2)CCOCC1 [6-I07, 2-chloro-N-[(4-phenyloxan-4-yl)methyl]acetamide] | 89.3
Cc1nn(-c2ccccc2)c(C)c1CNC(=O)CCl [6-I08, 2-chloro-N-[(3,5-dimethyl-1-phenyl-1H-pyrazol-4-yl)methyl]acetamide] | 2.35
N#Cc1c(NC(=O)CCl)oc(-c2cccs2)c1-c1cccs1 [6-I09, 2-chloro-N-[3-cyano-4,5-bis(thiophen-2-yl)furan-2-yl]acetamide] | 28.5
Cc1c(Cl)cccc1NC(=O)C(C)Cl (stereo not drawn) [6-I10, 2-chloro-N-(3-chloro-2-methylphenyl)propanamide] | 110
CCOC(=O)c1c(NC(=O)CCl)sc2c1CCCC2 [6-I11, ethyl 2-(2-chloroacetamido)-4,5,6,7-tetrahydro-1-benzothiophene-3-carboxylate] | 44.9

SMILES | viability at 48 h, 25 µM [%]
N#CCCN(C(=O)CCl)c1ccccc1 [6-I12, 2-chloro-N-(2-cyanoethyl)-N-phenylacetamide] | 1.62
CC(Cl)C(=O)N(C)Cc1ccccc1 (stereo not drawn) [6-I13, N-benzyl-2-chloro-N-methylpropanamide] | 105
CC(Cl)C(=O)Nc1cc([N+](=O)[O-])ccc1Cl (stereo not drawn) [6-I14, 2-chloro-N-(2-chloro-5-nitrophenyl)propanamide] | 117
CCn1cc(NC(=O)CCl)cn1 [6-I15, 2-chloro-N-(1-ethyl-1H-pyrazol-4-yl)acetamide hydrochloride] | 10.5
CC(C)c1ccc(CCNC(=O)CCl)cc1 [6-I16, 2-chloro-N-{2-[4-(propan-2-yl)phenyl]ethyl}acetamide] | 71
CC(C)N(c1ccccc1)c1ccc(NC(=O)CCl)cc1 [6-I17, 2-chloro-N-{4-[phenyl(propan-2-yl)amino]phenyl}acetamide] | 0.67
CC(Cl)C(=O)Nc1ncnc2[nH]cnc12 (stereo not drawn) [6-I18, 2-chloro-N-(9H-purin-6-yl)propanamide] | 100
CC(C)C(NC(=O)CCl)c1ccc(F)c(C#N)c1 (stereo not drawn) [6-I19, 2-chloro-N-[1-(3-cyano-4-fluorophenyl)-2-methylpropyl]acetamide] | 1.83
O=C(CCl)Nc1oncc1-c1ccccc1 [6-I20, 2-chloro-N-(4-phenyl-1,2-oxazol-5-yl)acetamide] | 1.45
O=C(CCl)N[C@H]1CCCc2ccccc21 [6-I21, 2-chloro-N-[(1S)-1,2,3,4-tetrahydronaphthalen-1-yl]acetamide] | 24
CCCc1ccc(NC(=O)CCl)cc1 [6-I22, 2-chloro-N-(4-propylphenyl)acetamide] | 0.417
O=C(CCl)NCc1cnn(-c2ccccc2)n1 [6-J03, 2-chloro-N-[(2-phenyl-2H-1,2,3-triazol-4-yl)methyl]acetamide] | 1.68
Cc1ccc(NC(=O)NC(=O)C(C)Cl)c(C)c1 (stereo not drawn) [6-J04, 3-(2-chloropropanoyl)-1-(2,4-dimethylphenyl)urea] | 96.6
Cc1cccc(CN(C(=O)CCl)C(C)C)c1 [6-J05, 2-chloro-N-[(3-methylphenyl)methyl]-N-(propan-2-yl)acetamide] | 0.679
COc1ccccc1N=Nc1ccc(NC(=O)CCl)cc1C [6-J06, 2-chloro-N-{4-[2-(2-methoxyphenyl)diazen-1-yl]-3-methylphenyl}acetamide] | 0.765
CC(=O)N(Cc1ncc(C(C)C)o1)C1CCN(C(=O)C(C)Cl)C1 (stereo not drawn) [6-J07, N-[1-(2-chloropropanoyl)pyrrolidin-3-yl]-N-{[5-(propan-2-yl)-1,3-oxazol-2-yl]methyl}acetamide] | 103
CC(Cl)C(=O)Nc1ccccc1OC(F)F (stereo not drawn) [6-J08, 2-chloro-N-[2-(difluoromethoxy)phenyl]propanamide] | 115
CC(Cl)C(=O)N(C)Cc1nccn1Cc1ccccc1 (stereo not drawn) [6-J09, N-[(1-benzyl-1H-imidazol-2-yl)methyl]-2-chloro-N-methylpropanamide] | 91.5
O=C(CCl)Nc1cc(-c2ccc3c(c2)CCC3)nn1-c1ccccc1 [6-J10, 2-chloro-N-[3-(2,3-dihydro-1H-inden-5-yl)-1-phenyl-1H-pyrazol-5-yl]acetamide] | 0.354
CCN(C(=O)CCl)C(c1ccccc1)c1ccc(F)cc1 (stereo not drawn) [6-J11, 2-chloro-N-ethyl-N-[(4-fluorophenyl)(phenyl)methyl]acetamide] | 0.263
O=C(CCl)Nc1cc(S(=O)(=O)N2CCOCC2)ccc1O [6-J12, 2-chloro-N-[2-hydroxy-5-(morpholine-4-sulfonyl)phenyl]acetamide] | 116
COCC1(NC(=O)C(C)Cl)CC=CCC1 (stereo not drawn) [6-J13, 2-chloro-N-[1-(methoxymethyl)cyclohex-3-en-1-yl]propanamide] | 107
CC(Cl)C(=O)N(C)C(C)c1cccc(NC(=O)c2ccccc2)c1 (stereo not drawn) [6-J14, N-{3-[1-(2-chloro-N-methylpropanamido)ethyl]phenyl}benzamide] | 111
CC(Cl)C(=O)N1CC(Oc2ccc(C#N)cc2)C1 (stereo not drawn) [6-J15, 4-{[1-(2-chloropropanoyl)azetidin-3-yl]oxy}benzonitrile] | 97.1
CC(Cl)C(=O)NC1CCCn2nccc21 (stereo not drawn) [6-J16, 2-chloro-N-{4H,5H,6H,7H-pyrazolo[1,5-a]pyridin-4-yl}propanamide] | 113
CC(Cl)C(=O)N1CCNC(=O)C1c1cccs1 (stereo not drawn) [6-J17, 4-(2-chloropropanoyl)-3-(thiophen-2-yl)piperazin-2-one] | 106
CC(Cl)C(=O)N1CCC(c2nc3cc(F)ccc3s2)CC1 (stereo not drawn) [6-J18, 2-chloro-1-[4-(5-fluoro-1,3-benzothiazol-2-yl)piperidin-1-yl]propan-1-one] | 78.9
